Results: article doi:10.1101/2020.05.21.108605v3 (biorxiv, 2020)

Experiments:
Format in all cases: cell-based
[1] = biological target: hNav1.5 (INa) (Homo sapiens, UniProt Q14524); assay: whole-cell patch clamp; settings: AZM alone, external pH 7.4
[2] = biological target: T1, hERG (IKr) (Homo sapiens, UniProt Q12809); assay: whole-cell patch clamp
[3] = biological target: KCNQ1/E1 (IKs) (Homo sapiens, UniProt P51787); assay: perforated whole-cell patch clamp; settings: AZM alone, external pH 7.4
[4] = biological target: Cav1.2/β2/α2/δ1 (ICa,L) (Homo sapiens, UniProt Q13936); assay: perforated whole-cell patch clamp; settings: AZM alone, external pH 7.4
[5] = biological target: T1, hERG (IKr); assay: whole-cell patch clamp, tail current inhibition
[6] = biological target: T2, Kir2.1 (IK1) (Homo sapiens, UniProt P63252); assay: whole-cell patch clamp, pulse current inhibition
T2 sequence (P63252 1-427): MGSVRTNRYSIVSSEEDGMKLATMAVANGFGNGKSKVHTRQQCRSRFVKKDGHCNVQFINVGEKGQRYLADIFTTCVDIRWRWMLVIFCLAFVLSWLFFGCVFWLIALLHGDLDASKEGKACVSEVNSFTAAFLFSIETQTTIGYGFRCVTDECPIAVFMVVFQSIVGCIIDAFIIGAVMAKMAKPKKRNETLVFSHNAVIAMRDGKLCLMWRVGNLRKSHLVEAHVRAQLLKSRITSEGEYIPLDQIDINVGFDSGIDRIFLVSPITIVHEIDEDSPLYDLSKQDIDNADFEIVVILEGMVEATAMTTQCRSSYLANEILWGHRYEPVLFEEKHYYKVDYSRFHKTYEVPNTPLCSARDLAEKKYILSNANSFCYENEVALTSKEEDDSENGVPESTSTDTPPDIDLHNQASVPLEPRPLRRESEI

T1 sequence (Q12809 whole entry): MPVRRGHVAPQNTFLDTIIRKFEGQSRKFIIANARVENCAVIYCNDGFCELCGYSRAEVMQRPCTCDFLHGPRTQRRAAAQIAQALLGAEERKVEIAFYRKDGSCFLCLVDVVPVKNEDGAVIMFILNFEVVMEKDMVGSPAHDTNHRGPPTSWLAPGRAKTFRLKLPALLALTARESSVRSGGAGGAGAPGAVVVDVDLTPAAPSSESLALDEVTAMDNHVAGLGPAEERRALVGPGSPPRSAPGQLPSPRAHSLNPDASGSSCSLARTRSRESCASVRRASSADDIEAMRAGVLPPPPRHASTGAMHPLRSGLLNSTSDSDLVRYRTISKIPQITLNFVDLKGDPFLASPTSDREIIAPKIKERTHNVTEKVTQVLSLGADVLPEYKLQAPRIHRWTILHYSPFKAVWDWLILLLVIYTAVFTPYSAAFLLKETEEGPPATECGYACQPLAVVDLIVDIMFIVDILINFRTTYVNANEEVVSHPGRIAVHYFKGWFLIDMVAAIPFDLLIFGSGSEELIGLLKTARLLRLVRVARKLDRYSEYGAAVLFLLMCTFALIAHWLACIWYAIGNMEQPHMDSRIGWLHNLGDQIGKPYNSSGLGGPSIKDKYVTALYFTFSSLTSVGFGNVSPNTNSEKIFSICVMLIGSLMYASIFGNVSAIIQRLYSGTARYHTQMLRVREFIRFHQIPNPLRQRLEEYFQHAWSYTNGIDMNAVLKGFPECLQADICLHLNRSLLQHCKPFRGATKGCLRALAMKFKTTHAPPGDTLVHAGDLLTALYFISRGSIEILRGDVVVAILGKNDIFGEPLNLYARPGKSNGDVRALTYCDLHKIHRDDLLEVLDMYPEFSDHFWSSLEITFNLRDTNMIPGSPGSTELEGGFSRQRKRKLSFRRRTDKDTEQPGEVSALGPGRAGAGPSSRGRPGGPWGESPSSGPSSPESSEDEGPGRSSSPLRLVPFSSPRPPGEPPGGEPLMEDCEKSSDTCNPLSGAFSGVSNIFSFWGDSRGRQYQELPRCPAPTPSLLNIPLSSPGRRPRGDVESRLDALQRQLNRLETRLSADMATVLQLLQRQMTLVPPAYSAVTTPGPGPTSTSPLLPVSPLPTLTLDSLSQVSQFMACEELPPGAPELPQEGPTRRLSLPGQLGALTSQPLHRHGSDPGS
Chain of hNav1.5 (INa) (Q14524 whole entry): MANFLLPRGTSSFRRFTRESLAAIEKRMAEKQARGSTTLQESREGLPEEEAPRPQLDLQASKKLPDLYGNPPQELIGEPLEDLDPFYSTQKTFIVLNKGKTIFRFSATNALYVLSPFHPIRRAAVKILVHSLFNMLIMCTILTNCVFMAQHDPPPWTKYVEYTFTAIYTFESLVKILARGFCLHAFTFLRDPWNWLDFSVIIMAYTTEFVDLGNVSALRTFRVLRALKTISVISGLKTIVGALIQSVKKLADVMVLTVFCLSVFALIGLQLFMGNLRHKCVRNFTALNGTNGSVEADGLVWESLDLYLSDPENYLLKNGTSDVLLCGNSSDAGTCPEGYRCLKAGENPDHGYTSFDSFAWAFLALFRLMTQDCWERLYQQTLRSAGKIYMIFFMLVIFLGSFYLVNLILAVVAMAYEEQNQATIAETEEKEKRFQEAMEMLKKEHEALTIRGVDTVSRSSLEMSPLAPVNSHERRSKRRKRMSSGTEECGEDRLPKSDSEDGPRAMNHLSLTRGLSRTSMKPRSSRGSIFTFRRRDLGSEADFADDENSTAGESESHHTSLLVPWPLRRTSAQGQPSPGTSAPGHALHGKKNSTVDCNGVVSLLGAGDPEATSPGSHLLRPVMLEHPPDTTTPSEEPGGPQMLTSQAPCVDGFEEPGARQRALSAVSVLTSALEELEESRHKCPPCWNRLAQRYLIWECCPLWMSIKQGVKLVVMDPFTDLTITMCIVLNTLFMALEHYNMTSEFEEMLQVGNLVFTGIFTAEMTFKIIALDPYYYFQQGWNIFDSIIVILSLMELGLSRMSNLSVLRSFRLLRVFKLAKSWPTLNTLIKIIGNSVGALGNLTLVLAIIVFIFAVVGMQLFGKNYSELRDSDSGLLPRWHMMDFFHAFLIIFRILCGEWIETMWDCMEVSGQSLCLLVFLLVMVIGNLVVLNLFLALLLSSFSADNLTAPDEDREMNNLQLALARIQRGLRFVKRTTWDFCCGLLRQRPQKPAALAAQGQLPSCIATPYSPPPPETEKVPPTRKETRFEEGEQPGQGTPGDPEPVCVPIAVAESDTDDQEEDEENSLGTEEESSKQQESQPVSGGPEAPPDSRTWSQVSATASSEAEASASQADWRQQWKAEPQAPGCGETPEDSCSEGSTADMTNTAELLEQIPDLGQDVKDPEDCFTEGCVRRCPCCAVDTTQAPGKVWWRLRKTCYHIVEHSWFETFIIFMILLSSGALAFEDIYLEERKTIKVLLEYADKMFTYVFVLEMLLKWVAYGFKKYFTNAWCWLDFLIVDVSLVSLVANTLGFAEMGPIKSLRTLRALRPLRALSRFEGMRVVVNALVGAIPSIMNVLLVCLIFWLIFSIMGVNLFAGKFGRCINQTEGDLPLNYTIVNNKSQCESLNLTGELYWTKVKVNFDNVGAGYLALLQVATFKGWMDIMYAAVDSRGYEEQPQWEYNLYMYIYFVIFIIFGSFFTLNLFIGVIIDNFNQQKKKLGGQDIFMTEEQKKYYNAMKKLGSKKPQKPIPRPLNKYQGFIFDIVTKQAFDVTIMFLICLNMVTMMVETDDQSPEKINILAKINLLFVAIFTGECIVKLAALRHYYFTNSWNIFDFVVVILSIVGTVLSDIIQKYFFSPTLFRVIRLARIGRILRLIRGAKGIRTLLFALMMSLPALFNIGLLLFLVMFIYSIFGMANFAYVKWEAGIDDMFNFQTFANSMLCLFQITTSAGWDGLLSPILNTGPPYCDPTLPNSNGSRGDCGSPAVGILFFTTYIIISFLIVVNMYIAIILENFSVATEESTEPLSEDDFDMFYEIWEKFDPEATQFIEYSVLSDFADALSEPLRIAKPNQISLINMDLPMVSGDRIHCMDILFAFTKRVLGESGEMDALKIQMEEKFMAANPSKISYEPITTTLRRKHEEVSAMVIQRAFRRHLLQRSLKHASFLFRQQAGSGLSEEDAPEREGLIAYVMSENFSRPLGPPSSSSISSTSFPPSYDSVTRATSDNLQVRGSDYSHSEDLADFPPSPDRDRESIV
Chain of KCNQ1/E1 (IKs) (P51787 whole entry): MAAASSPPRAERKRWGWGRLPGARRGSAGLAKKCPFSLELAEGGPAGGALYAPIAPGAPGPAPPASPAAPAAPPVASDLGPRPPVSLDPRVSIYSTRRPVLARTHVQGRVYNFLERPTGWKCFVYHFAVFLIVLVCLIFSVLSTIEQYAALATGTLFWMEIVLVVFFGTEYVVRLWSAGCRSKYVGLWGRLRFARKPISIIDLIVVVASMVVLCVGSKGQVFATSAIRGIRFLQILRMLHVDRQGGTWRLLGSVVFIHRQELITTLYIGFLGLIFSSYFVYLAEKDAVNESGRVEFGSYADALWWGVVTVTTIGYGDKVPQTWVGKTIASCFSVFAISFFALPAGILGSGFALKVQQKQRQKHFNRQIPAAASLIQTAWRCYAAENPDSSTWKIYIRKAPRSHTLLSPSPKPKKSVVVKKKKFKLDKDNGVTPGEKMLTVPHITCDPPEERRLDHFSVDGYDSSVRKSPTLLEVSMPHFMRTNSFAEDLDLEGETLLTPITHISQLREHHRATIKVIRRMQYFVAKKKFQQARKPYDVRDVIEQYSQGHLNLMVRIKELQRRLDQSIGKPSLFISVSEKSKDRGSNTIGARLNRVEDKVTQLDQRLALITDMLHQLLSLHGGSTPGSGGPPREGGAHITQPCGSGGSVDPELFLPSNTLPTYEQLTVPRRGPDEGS

| SMILES | % reduction at 100 μM [1] | % reduction at 100 μM [2] | % reduction at 100 μM [3] | % reduction at 100 μM [4] | IC50 [5] | IC50 [6] |
| --- | --- | --- | --- | --- | --- | --- |
| CC[C@H]1OC(=O)[C@H](C)[C@@H](O[C@H]2C[C@@](C)(OC)[C@@H](O)[C@H](C)O2)[C@H](C)[C@@H](O[C@@H]2O[C@H](C)C[C@H](N(C)C)[C@H]2O)[C@](C)(O)C[C@@H](C)CN(C)[C@H](C)[C@@H](O)[C@]1(C)O [azithromycin] | < 35% | < 35% | < 35% | < 35% |  |  |
| CCN(CCO)CCCC(C)Nc1ccnc2cc(Cl)ccc12 (stereo not drawn) [hydroxychloroquine] |  |  |  |  | 10 ± 0.6 µM | 34 ± 5 µM |
